Experimental data: patent US20240415793A1, “Neuroprotective composition comprising pyruvate and citrate” (N.V. Nutricia, priority 2022, published 2024)

Columns and labels:
[1] = tested on: neuroglial cell cultures; assay: Seahorse assay (OCR/ECAR), 24-hour incubation with citrate under resting conditions; assay type: cell-based, rat; settings: 0.8 mM Mg2+, vs control medium; for increase in basal glycolytic rates: FIG. 5A; for increase in OM-induced increase in glycolytic rates: FIG. 5B; for increase in FCCP-induced maximal glycolytic capacity: FIG. 5C
Experimental: The oxygen consumption rates (OCRs) and extracellular acidification rates (ECARs) of cells seeded in 96-well plates were monitored in real time at 37° C. in unbuffered Hanks Balanced Salt Solution (HBSS). The OCRs represent foremost mitochondrial respiration, and to a minor extent non-mitochondrial respiration. The ECARs relate foremost to the acidification of the medium with lactate produced through glycolysis and secreted by the cells into the medium (Table 1).
During the Seahorse run, both the OCRs and ECARs were measured simultaneously at baseline and following the injection of compounds by the Seahorse instrument (Table 1). HBSS was supplemented with glucose from the start and no glucose was injected through the Seahorse instruments. Measurements were repeated three times at baseline and three times after each compound injection.
After the initial baseline measurement, oligomycin (OM) was injected. OM blocks mitochondrial ATP synthase (complex V) and therefore decreases mitochondrial respiration. The OCRs after OM injection are due to the mitochondrial proton leak. They enable to determine whether the test nutrients impact the proton leak. The difference in OCRs at baseline and after OM injection is the amount of oxygen used for mitochondrial ATP synthesis at baseline. From this difference in OCR, the mitochondrial ATP production rates are calculated.
After OM, uncoupling agent carbonyl cyanide-p- trifluoromethoxyphenyl-hydrazon [FCCP] was injected which collapses the proton gradient across the inner mitochondrial membrane established during respiration and required for ATP synthesis. The cells attempt to restore the proton gradient following FCCP injection by maximizing respiration. The OCRs measured after FCCP injection therefore represent the maximal respiratory capacity of the mitochondria in the sample and enable to determine whether test nutrients impact the maximal respiratory capacity of the mitochondria.
Finally, Antimycin A, a complex III inhibitor, and Rotenone, a complex I inhibitor, were co-injected, both blocking the respiratory chain at different sites to entirely shut down mitochondrial respiration and determine the non-mitochondrial respiration. The latter is necessary to correct all OCRs and obtain the mitochondrial OCRs.
The ECARs were measured simultaneously at baseline and after OM and FCCP injection. The glycolytic ATP production was calculated from the baseline ECARs. The subsequent injection of OM pushed the cells to maximize their glycolytic ATP production to compensate for the loss in mitochondrial ATP production inflicted by OM. The further addition of FCCP drove mitochondrial respiration to a maximum and this eventually led to a further increase in glycolytic rates providing pyruvate into the TCA cycle to sustain maximal respiration. Therefore, the ECARs after FCCP injection were used to determine the maximum glycolytic capacity of the cells.
Further, the effects of a 24-hour incubation with citrate on glycolysis, mitochondrial respiration and total (glycolytic and mitochondrial) energy (ATP) production under resting conditions was assessed. Neuroglial cell cultures were grown in Neurobasal medium (NBM) supplemented with B27, high (25 mM) glucose, and high (0.8 mM) Mg2+ from DIV0 until DIV14. They were switched to NBM supplemented with B27, low (5 mM) glucose, and high (0.8 mM) Mg^2+ from DIV14 until DIV16. On DIV16, the medium was exchanged for DMEM (which is, in contrast to HBSS, not a nutrient-deprived medium) containing low (5 mM) glucose, high (0.8 mM) Mg^2+ and 500 μM or 1 mM citrate. On DIV17, one hour prior to the Seahorse run, the medium was replaced with unbuffered DMEM containing low (5 mM) glucose, high (0.8 mM) Mg^2+ and 500 μM or 1 mM citrate. The cells were left in this medium until the end of the run. Five repeats per condition were done.

[2] = tested on: primary mouse neuroglial cultures; assay: Cell death by high content imaging (Hoechst/NeuN nuclear shrinkage) after chronic hyperstimulation; assay type: cell-based; settings: 1 mM
Experimental: To determine whether pyruvate and citrate protect neurons and glial cells from cell death induced by chronic electrical hyperstimulation. To assess protection from cell death induced by repeated hyperstimulation, primary mouse neuroglial cultures were assayed. Neuroglial cell cultures were prepared and grown until DIV14 as described above. From DIV14 until DIV17 they were switched to NBM containing B27, low (2.5 mM) glucose, and low (0.1 mM) Mg^2+ or high (0.8 mM) Mg^2+. Incubation in low (0.1 mM) Mg^2+ medium increases the neuronal firing rates, thus creating a state of chronic hyperstimulation. The test nutrients (pyruvate or citrate) were supplied through the medium from DIV14 until DIV17. On DIV17, the cell nuclei were stained with the Hoechst dye and co-immunolabelled for NeuN, a protein found only in the nuclei of neurons. The neuronal and non-neuronal cell nuclei were scored for nuclear shrinkage, a hallmark of cell death, by high content imaging.
To assess cell death by high content imaging the cells were fixed on DIV17 in 1% formaldehyde, permeabilized with ethanol and incubated with a rabbit polyclonal IgG antibody against NeuN, a neuron-specific protein localized to the nucleus, followed by detection with a secondary anti-rabbit IgG antibody linked to a red fluorescent label. Neuronal and non-neuronal cell nuclei were then counterstained with the blue fluorescent nuclear dye Hoechst. The nuclei were counted by a high content imager based on signal intensity and size. A cut-off value was applied to exclude objects of low signal intensity considered noise. Then, cut-off values were applied to exclude objects with an area below 30 μM^2 considered cell debris and objects with an area above 300 μM^2 considered cell clumps. A boundary of 60 μM^2 was set to distinguish between nuclei from alive and dead cells. Objects areas of 30 μM^2 to 60 μM^2 were counted as nuclei from dead cells, while object areas of 60 μM^2 to 300 μM^2 were counted as nuclei from alive cells. The counting was done at 20-fold magnification on a fixed number of optical fields per well. The counts of nuclei from dead neurons or dead cells were related to the number of alive neurons or alive cells, respectively, in the same well.
Neuroglial cell cultures were supplemented with 1 mM citrate from DIV14 until DIV17. On DIV17, total cell death and neuron-specific cell death were quantified by high content imaging. The total number of Hoechst positive objects or NeuN positive objects prior to applying cut-off values for the signal intensity and the area size was equal between the different groups (FIG. 10 A, D).

In the case of `O=C(O)CC(O)(CC(=O)O)C(=O)O` [citrate], the “increase in basal mitochondrial respiration” value ([1]; 500 μM and 1 mM citrate, FIG. 4B) was ~60%, the “increase in FCCP-induced maximal mitochondrial respiratory capacity” value ([1]; 500 μM and 1 mM citrate, FIG. 4C) was 60-70% and the “increase in basal mitochondrial and glycolytic ATP production” value ([1]; 500 μM and 1 mM citrate, DMEM 5 mM glucose, FIG. 4A) was ~45%. For the same compound, the “increase in basal glycolytic rates” value ([1]; 500 μM citrate) was ~45%, the “increase in OM-induced increase in glycolytic rates” value ([1]; 500 μM citrate) was ~70% and the “increase in FCCP-induced maximal glycolytic capacity” value ([1]; 500 μM citrate) was ~75%. The “increase in basal glycolytic rates” value ([1]; 1 mM citrate) was ~20%, the “increase in OM-induced increase in glycolytic rates” value ([1]; 1 mM citrate) was ~30% and the “increase in FCCP-induced maximal glycolytic capacity” value ([1]; 1 mM citrate) was ~50%. For the same compound, the “increase in dead cell counts from high Mg2+ to low Mg2+ medium” value ([2]; DIV14-DIV17, chronic hyperstimulation, FIG. 10C/11C) was ~4%, the dead cell counts ([2]; DIV14-DIV17, high (0.8 mM) Mg2+ medium, FIG. 10C/11C) was ~19% and the “dead neuron count (neuron death)” value ([2]; DIV14-DIV17, high Mg2+ medium, FIG. 10F/11F) was −1.5%. The dead cell counts ([2]; DIV14-DIV17, low (0.1 mM) Mg2+ medium, FIG. 10C/11C) was ~23%, the “dead neuron count (neuron death)” value ([2]; DIV14-DIV17, low Mg2+ medium, FIG. 10F/11F) was ~1.4% and the “effect on alive cell count” value ([2]; DIV14-DIV17, FIG. 10B/11B) was “not impacting”. For the same compound, the “effect on rise in neuron death induced by chronic hyperstimulation” value ([2]; DIV14-DIV17, FIG. 10F/11F) was “entirely blocked”.
